Assays:
calcium-starved rats = assay: Test of the degree of absorption of Ca-supplying agents in calcium-starved rats; conditions: for Length of fibula / Weight of fibula: Ca-starved rats, Ca-supplying agent orally for one week with Ca-free diet
Method: 3-week old Sprague-Dawley male rats (Daehan Biolink Co., Ltd., Korea) were employed for the present experiment after adjustment to an elementary diet These rats were divided into a normal group and an experimental group. The diet for the normal group (“normal diet”) was prepared based upon AIN-76 diet composition, whereas the diet for the experimental group (“Ca-flee diet” or “experimental diet”) was prepared by replacing a mineral mixture in the normal diet composition with a Ca deficient mineral mixture. […] These Ca-supplying agents were orally administered to each group along with the Ca-free diet for one week before the rats were sacrificed.
The concentration of Ca-supplying agent in the oral administration was ⅓ of the concentration of calcium in AIN-76 mineral mixture, which corresponds to 10 times the recommended amount for adult males. 3× distilled water was used for preparation of the experimental diet and was also was fed to rats for maintenance. The compositions of diets administered to the normal group and experimental groups, respectively, are described in TABLE 8 as below.
The abdomens of the rats were cut open under ether anesthesia, then blood was harvested from abdominal aorta, and major organs such as liver, kidney, spleen, etc. were […], followed by the extraction of fibula. The blood was centrifuged at 3000 rpm for 10 minutes to separate serum. Each organ and bone was trimmed and washed with normal saline and moisture on the surface thereof was removed to measure the weight and length thereof.
The content of calcium in serum and urine was measured by Calcium Reagent Arsenazo III kit (Sigma Corp., U.S.A). In order to measure the content of calcium in feces, the feces (sample) was put in a Pyrex beaker and the weight thereof was measured to 0.1 mg unit, then 5 ml of HNO3 and 2 ml of H2O2 were added and the beaker was left uncovered on a hot plate. The acid-digested sample was cooled and 2 ml of H2O2 was added thereto, followed by heating. Next, the acid was sufficiently volatilized to make the concentration of HNO3 to 1-5%, followed by the analysis with ICP-AES (inductively Coupled Plasma Atomic Emission Spectrometer). The condition for analysis is given below. • Model: Jobin Yvon 138 Ultrace • Source: Argon plasma (6000 K) • Spectral range: 160-800 nm • Resolution: 0.005 nm (UV) • Detection limit: 1×ppb˜100×ppb • Wavelength for analysis: 393.366 nm 3. Effect On Weight of Major Organs

Fe-starved rats = assay: Effect of Fe-supplying agents on the absorption of Fe in Fe-starved rats
Method: 3-week old Sprague-Dawley male rats (Daehan Biolink Co., Ltd., Korea) were employed for the present experiment after application of an elementary diet for one week. These rats were divided into a normal group and an experimental group. The diet for the normal group (“normal diet”) was prepared based upon AIN-76 diet composition, whereas the diet for the experimental group (“Fe-free diet” or “experimental diet”) was prepared by replacing a mineral mixture in the normal diet composition with a Fe-deficient mineral mixture. […] These Fe-supplying agents were orally administered to rats along with the experimental diet for one week before the rats were sacrificed.
The concentration of Fe-supplying agent for the oral administration was 10 times the recommended amount for adult males. 3× distilled water was used for preparation of the experimental diet and was fed to rats for maintenance. The compositions of diets administered to the normal group and experimental group, respectively, are described in TABLE 14 below.
Rats were adapted to a cage for one week before the start of the experiment, and their feces were collected for a final 3 days. On the final day, the abdomen was cut open under ether anesthesia, then blood was harvested from abdominal aorta, and major organs such as liver, kidney, spleen, etc. were extracted. […] Each organ was trimmed and washed with normal saline, then moisture on the surface thereof was removed to measure the weight and length.
CBC (Complete Blood Count: Red blood cell; RBC, white blood cell; WBC, Hematocrits; HCT, Hemoglobin; Hb) was measured from the anticoagulated blood, and IRON and TIBC Total Iron Binding Capacity) were measured from the blood serum. CBC was measured by an automatic analyzer (ADVIA 120, Bayer, U.S.A). As reagents, Isoton III (Beckman Coulter, U.S.A), Coulter clenz (Beckman Coulter), Lyse S III (Beckman Coulter), 4% sodium hypochloride-solution (Beckman Coulter) and 4C-plus (Beckman Coulter), Scatter Pak (Beckman Coulter) were used.
All data obtained in the present experiment were expressed with the mean standard error using the SAS program. T-test in each group was carried out at a range of P<0.05 by Duncan's multiple comparison test.

[1] = Stability of amino acid chelate on storage in aqueous solutions; assay type: physicochemical; conditions: distilled water and buffer at pH 3, 5, 7, 9, commercial beverages, cosmetics, ALGI; stored at 4, 25 and 50° C. for 3 months
Method: The following experiment was carried out to ascertain the stability of amino acid chelate compound, obtained in EXAMPLE 1, on its storage in an aqueous solution for a long time.
• 1) preparation of samples by adding the above amino acid chelate compound into distilled water adjusted to pH 3, 5, 7 and 9, respectively. • 2) preparation of samples by adding the above amino acid chelate compound into solutions adjusted to pH 3, 5, 7 and 9 using buffer, respectively. • 3) preparation of samples by adding the above amino acid chelate compound into selected commercially available beverages (MIEROFIBER® (Hyundai Pharm., Korea), BACCHUS® (Donga Pharm., Korea) and orange juice (HaeTae Beverage Corp., Korea)), respectively. • 4) preparation of samples by adding the above amino acid chelate compound into selected commercially available cosmetics (ISA KNOX® (LG Chemical Corp., Korea), MAMONDE® (AmorePacific Corp., Korea)) • 5) preparation of samples by adding the above amino acid chelate compound into ALGI® (GG Tech. Co. Ltd., Korea) as a plant growth-accelerating agent
The above samples were stored at 4, 25 and 50° C., respectively, and then tested for any precipitation or change in pH. […]

[2] = Fe-starved rats, oral for one week

Molecule | Concentration of calcium in serum (calcium-starved rats; rat, in vivo, po) [mg/dL] | Concentration of calcium in urine (calcium-starved rats; rat, in vivo, po) [mg/dL] | Kidney weight (calcium-starved rats; rat, in vivo, po) [mg/BW] | Spleen weight (calcium-starved rats; rat, in vivo, po) [mg/BW] | Length of fibula (calcium-starved rats) [mm] | Weight of fibula (calcium-starved rats) [g] | RBC (Fe-starved rats; [2]) | TIBC (total iron binding capacity) in serum (Fe-starved rats; [2]) [µg/dL] | WBC (Fe-starved rats; [2]) | other results
seaweed calcium [SW-Ca] | 10.44 ± 0.07 | 0.32 ± 0.02 | 8.20 ± 0.20 | 3.00 ± 0.32 |  |  |  |  |  | 
O=C([O-])[O-].[Ca+2] [CaCO3] | 9.13 ± 0.21 | 0.22 ± 0.01 | 8.60 ± 0.40 | 3.00 ± 0.00 | 30.03 ± 1.10 | 0.332 ± 0.033 |  |  |  | Concentration of serum-calcium in blood collected from eyeball (calcium-starved rats; rat, in vivo, po): 8.52 ± 0.27 mg/dL
iron-aspartic acid chelate [Fe-Asp] |  |  |  |  |  |  | 7.32 ± 0.35 ×10^6/mm^3 | 735.44 ± 9.30 | 6.02 ± 0.46 ×10^3/mm^3 | 
Seaweed Calcium-Glutamic Acid Chelate [EXAMPLE 1] |  |  |  |  |  |  |  |  |  | precipitation or change in pH [1]: no precipitation or remarkable change in pH
Heme iron |  |  |  |  |  |  | 7.01 ± 0.16 ×10^6/mm^3 | 824.63 ± 11.60 | 6.12 ± 0.37 ×10^3/mm^3 | HCT (Fe-starved rats; [2]): 36.11 ± 0.89%; TS (transferrin saturation) (Fe-starved rats; [2]): 17.07%; IRON in serum (Fe-starved rats; rat, in vivo, po): 140.8. ± 25.55 μg/dl; Kidney weight (Fe-starved rats; rat, in vivo, po): 7.20 ± 0.13 mg/BW; Spleen weight (Fe-starved rats; rat, in vivo, po): 2.78 ± 0.15 mg/BW
calcium-aspartic acid chelate [Asp-Ca] |  |  |  |  | 30.88 ± 1.87 | 0.327 ± 0.031 |  |  |  | 
